Assay results as given in US11077090B2, “Compounds and compositions and uses thereof” (Sunovion Pharmaceuticals Inc., priority 2016, dated 2021).
Where a name gives a salt, the structure may show the parent alone. Read-outs that look alike come from different tables or passages of the source.

System: compound-treated mice
Assay: Neuropharmacological assay (SmartCube): behavioral activity signature and minimal effective dose
Type: in vivo
Details: for minimal effective dose: Mus musculus, ip; for AD: ADHD (probability of activity signature) / AG: analgesic (probability of activity signature) / AX: anxiolytic (probability of activity signature) / CE: cognitive enhancer (probability of activity signature) / DP: anti-depressant (probability of activity signature) / MS: mood stabilizer (probability of activity signature) / PS: anti-psychotic (probability of activity signature) / SD: sedative hypnotic (probability of activity signature) / UN: uncharacterized CNS activity (probability of activity signature): i.p. 15 min before test, most efficacious dose(s)
From the text: Neurosci. 2011 Sep. 9; 5:103 (doi: 10.3389/fnins.2011.00103) (“Roberds”). As reported in Roberds, because psychiatric diseases generally result from disorders of cell-cell communication or circuitry, intact systems are useful in detecting improvement in disease-relevant endpoints. These endpoints are typically behavioral in nature, often requiring human observation and interpretation. To facilitate testing of multiple compounds for behavioral effects relevant to psychiatric disease, PsychoGenics, Inc. (Tarrytown, N.Y., “PGI”) developed SmartCube™, an automated system in which behaviors of compound-treated mice are captured by digital video and analyzed with computer algorithms. (D. Brunner et al., Drug Discov. Today 2002, 7:S107-S112). PGI Analytical Systems uses data from SmartCube™ to compare the behavioral signature of a test compound to a database of behavioral signatures obtained using a large set of diverse reference compounds. (The composition of the database as well as validation of the method is further described in Roberds). In this way, the neuropharmacological effects of a test compound can be predicted by similarity to major classes of compounds, such as antipsychotics, anxiolytics and antidepressants.
The SmartCube™ system produces an activity signature indicating the probability that the activity of the test compound at the administered dose matches a given class of neuropharmacological agents. (See, e.g., Roberds, FIGS. 2 and 3). The test compound is simultaneously compared against multiple classes of agents; thus, a separate probability is generated for each behavioral effect measured (e.g., anxiolytic activity, analgesic activity, etc.). In the table below, these probabilities are reported for each behavioral effect measured as follows:
where LOQ is the limit of quantification.
Provided compounds were dissolved in a mixture of Pharmasolve™ (N-methyl-2-pyrrolidone), polyethylene glycol and propylene glycol, and were injected i.p. 15 min. before the behavioral test. For each compound, injections were administered at 3 different doses. For each behavioral effect measured, results for the most efficacious dose(s) are presented. In the table below, DP: anti-depressant; AX: anxiolytic; SD: sedative hypnotic; PS: anti-psychotic; MS: mood stabilizer; AD: ADHD; CE: cognitive enhancer; AG: analgesic; UN: uncharacterized CNS activity.
The potency of many of the compounds in the table was also determined in the SmartCube™ system. Test compounds were routinely examined at dose levels of 0.3, 1, 3, 10 and 30 mg per kg (mpk), although the dose range was increased or decreased if necessary to obtain a full dose response curve. A compound's minimal effective dose (MED) is a measure of the compounds potency. The MED was defined as the dose (in mpk) having 50% or more total activity in SmartCube.

[1] = MED = dose having 50% or more total activity, read-out: Potency: minimal effective dose (MED)
[2] = MED = dose having 50% or more total activity, read-out: Potency: minimal effective dose (MED), binned

SMILES | minimal effective dose [1] [mg/kg] | AD: ADHD (probability of activity signature) | AG: analgesic (probability of activity signature) | AX: anxiolytic (probability of activity signature) | CE: cognitive enhancer (probability of activity signature) | DP: anti-depressant (probability of activity signature) | MS: mood stabilizer (probability of activity signature) | PS: anti-psychotic (probability of activity signature) | SD: sedative hypnotic (probability of activity signature) | UN: uncharacterized CNS activity (probability of activity signature) | minimal effective dose [2] [mg/kg] | MS: mood stabilizer (probability of activity signature) (hydrochloride) | SD: sedative hypnotic (probability of activity signature) (hydrochloride) | Potency: minimal effective dose (MED), binned (MED = dose having 50% or more total activity, hydrochloride)
Cc1ccc2c(c1)[C@@H](N)[C@H](C)OC2.Cl (relative stereo) [Example 77, trans-3,6-Dimethylisochroman-4-amine hydrochloride] | < 3 | + (LOQ ≤ + <5%) | ++ (5% ≤ ++ <25%) | ++ (5% ≤ ++ <25%) | ++ (5% ≤ ++ <25%) | ++ (5% ≤ ++ <25%) | + (LOQ ≤ + <5%) | ++ (5% ≤ ++ <25%) | + (LOQ ≤ + <5%) | +++ (25% ≤ +++ <50%) |  |  |  | 
CC[C@H]1OCc2ccc(C)cc2[C@@H]1N.Cl (relative stereo) [Example 99, trans-3-Ethyl-6-methylisochroman-4-amine hydrochloride] | 3 to 10 | + (LOQ ≤ + <5%) | ++ (5% ≤ ++ <25%) | +++ (25% ≤ +++ <50%) | ++ (5% ≤ ++ <25%) | ++ (5% ≤ ++ <25%) | + (LOQ ≤ + <5%) | ++ (5% ≤ ++ <25%) | + (LOQ ≤ + <5%) | +++ (25% ≤ +++ <50%) |  |  |  | 
CC[C@@H]1OCc2ccc(C)cc2[C@@H]1N.Cl (relative stereo) [Example 100, cis-3-Ethyl-6-methylisochroman-4-amine hydrochloride] | < 3 | + (LOQ ≤ + <5%) | ++ (5% ≤ ++ <25%) | ++ (5% ≤ ++ <25%) | ++ (5% ≤ ++ <25%) | ++ (5% ≤ ++ <25%) | + (LOQ ≤ + <5%) | +++ (25% ≤ +++ <50%) | ++ (5% ≤ ++ <25%) | +++ (25% ≤ +++ <50%) |  |  |  | 
C[C@@H]1OC[C@H](N)c2ccccc21.Cl (relative stereo) [Example 104, cis-1-Methylisochroman-4-amine hydrochloride] | 3 to 10 | + (LOQ ≤ + <5%) | ++ (5% ≤ ++ <25%) | ++ (5% ≤ ++ <25%) | ++ (5% ≤ ++ <25%) | ++ (5% ≤ ++ <25%) | + (LOQ ≤ + <5%) | ++ (5% ≤ ++ <25%) | ++ (5% ≤ ++ <25%) | +++ (25% ≤ +++ <50%) |  |  |  | 
C[C@@H]1OC[C@@H](N)c2ccccc21.Cl (relative stereo) [Example 105, trans-1-Methylisochroman-4-amine hydrochloride] | 10 to 30 | + (LOQ ≤ + <5%) | ++ (5% ≤ ++ <25%) | ++ (5% ≤ ++ <25%) | ++ (5% ≤ ++ <25%) | ++ (5% ≤ ++ <25%) | ++ (5% ≤ ++ <25%) | ++ (5% ≤ ++ <25%) | + (LOQ ≤ + <5%) | +++ (25% ≤ +++ <50%) |  |  |  | 
CN[C@@H]1CO[C@@H](C)c2ccccc21 (relative stereo) [Example 236, trans-N,1-dimethylisochroman-4-amine hydrochloride] |  | + (LOQ ≤ + <5%) | ++ (5% ≤ ++ <25%) | ++ (5% ≤ ++ <25%) | + (LOQ ≤ + <5%) | ++ (5% ≤ ++ <25%) | + (LOQ ≤ + <5%) | ++ (5% ≤ ++ <25%) | + (LOQ ≤ + <5%) | ++++ (50% ≤ ++++) | 3 to 10 |  |  | 
CN[C@@H]1CO[C@H](C)c2ccccc21 (relative stereo) [Example 240, cis-N,1-dimethylisochroman-4-amine hydrochloride] |  | + (LOQ ≤ + <5%) | ++ (5% ≤ ++ <25%) | ++ (5% ≤ ++ <25%) | ++ (5% ≤ ++ <25%) | ++ (5% ≤ ++ <25%) | + (LOQ ≤ + <5%) | ++ (5% ≤ ++ <25%) | ++ (5% ≤ ++ <25%) | +++ (25% ≤ +++ <50%) | 3 to 10 |  |  | 
CC(C)[C@@H]1OCc2ccccc2[C@@H]1N (relative stereo) [Example 256, cis-3-Isopropylisochroman-4-amine hydrochloride] |  | ++ (5% ≤ ++ <25%) | + (LOQ ≤ + <5%) | ++ (5% ≤ ++ <25%) | + (LOQ ≤ + <5%) | + (LOQ ≤ + <5%) | ++ (5% ≤ ++ <25%) | +++ (25% ≤ +++ <50%) | ++ (5% ≤ ++ <25%) | ++ (5% ≤ ++ <25%) | 3 to 10 |  |  | 
CC(C)[C@@H]1OCc2ccccc2[C@H]1N.Cl (relative stereo) [Example 257, trans-3-Isopropylisochroman-4-amine hydrochloride] |  | + (LOQ ≤ + <5%) | + (LOQ ≤ + <5%) | + (LOQ ≤ + <5%) | + (LOQ ≤ + <5%) | ++ (5% ≤ ++ <25%) |  | ++ (5% ≤ ++ <25%) |  | ++ (5% ≤ ++ <25%) | 3 to 10 | ++ (5% ≤ ++ <25%) | +++ (25% ≤ +++ <50%) | 
CC(C)[C@@H]1OCc2ccccc2[C@H]1N.Cl (relative stereo) [Example 274, trans-3-Isopropylisochroman-4-amine hydrochloride] |  | + (LOQ ≤ + <5%) | + (LOQ ≤ + <5%) | + (LOQ ≤ + <5%) | + (LOQ ≤ + <5%) | ++ (5% ≤ ++ <25%) |  | ++ (5% ≤ ++ <25%) |  | ++ (5% ≤ ++ <25%) |  | +++ (25% ≤ +++ <50%) | ++ (5% ≤ ++ <25%) | A (≤3 mpk)
Cl.N[C@H]1c2ccccc2CO[C@H]1CF (relative stereo) [Example 275, cis-3-(fluoromethyl)isochroman-4-amine hydrochloride] |  | + (LOQ ≤ + <5%) | + (LOQ ≤ + <5%) | + (LOQ ≤ + <5%) | + (LOQ ≤ + <5%) | + (LOQ ≤ + <5%) | ++ (5% ≤ ++ <25%) | + (LOQ ≤ + <5%) | +++ (25% ≤ +++ <50%) | ++ (5% ≤ ++ <25%) | 3 to 10 |  |  | 
